{"source": "patent US20210311061A1", "about": "“USE OF TROP-2 AS PREDICTIVE MARKER OF RESPONSE TO ANTI-TUMOR THERAPY BASED ON INHIBITORS OF CD9, AKT AND MOLECULES OF THE TETRASPANIN SIGNALLING NETWORK” (ONCOXX BIOTECH S.R.L., priority 2012, published 2021)", "molecules": {"B1": {"name": "caveolin (other, murine, UniProt P49817 2-178, looked up)", "chain": "SGGKYVDSEGHLYTVPIREQGNIYKPNNKAMADEVTEKQVYDAHTKEIDLVNRDPKHLNDDVVKIDFEDVIAEPEGTHSFDGIWKASFTTFTVTKYWFYRLLSTIFGIPMALIWGIYFAILSFLHIWAVVPCIKSFLIEIQCISRVYSIYVHTFCDPLFEAIGKIFSNIRISTQKEI", "notes": "Lipid-raft marker used as negative control in the confocal, co-capping and footprint analyses; also called caveolin-1"}}, "key": {"Akt": {"system": "Akt", "assay": "Western blot of Akt phosphorylation in MTE 4-14 transfectants with or without PMA", "type": "cell-based, murine", "method": "Western blotting was performed as previously described (El Sewedy, Fornaro et al. 1998). In brief, cell lysates were analyzed by electrophoresis on denaturing polyacrylamide gel (SDS-PAGE) and transfered onto nitrocellulose filters. Filters were incubated with the relevant primary antibodies (Abcam, Cambridge, UK; Santa Cruz) in TBS with 5% non-fat dried milk. Hybridized filters were washed in TBS, 0.1% Tween-20. […] Signal intensity was quantified with NIH-image 1.62, using as reference a Kodak gray-scale standards power curve (www.kodak.com)."}, "[1]": {"system": "MTE 4-14 cells transfected with Trop-2", "assay": "In vitro cell-growth assay, MTE 4-14 cells transfected with Trop-2", "type": "cell-based, murine", "conditions": "siRNA transfection, growth curves, FIG. 7d", "method": "(§1) MTE 4-14 cells transfected with the empty vector or with Trop-2 were seeded at 1.5-3×10^3 cells/well in 96-well plates (five replica wells per data point). Cell numbers were quantified by the MTT colorimetric assay (Roche Molecular Biochemicals, Mannheim, Germany) or by staining with crystal violet. Cell numbers were normalised against a reference standard curve of serially diluted cell samples.\n(§2) Cells were treated with 50-100-200-400 nM A6730_SIGMA (Sigma Technical Company, St Louis, Mo. 63178-9916) or with 400 nM MK-2206 (Selleck Chemicals, Houston, Tex.) to inhibit Akt. Stock solutions were prepared in DMSO and diluited in ethanol or water, with the final concentration of DMSO and ethanol never exceeding 0.1% and 1% respectively. Control cells received vehicle alone. A second treatment was performed 24 hours after seeding.\n(§3) The corresponding constructs were transiently transfected into MTE 4-14 cells, and their effect on cell proliferation was evaluated. The levels of transcripts after silencing were quantified by real-time RT-PCR. siRNAs directed against irrelevant targets were used as negative controls, chosen after thorough verification of the absence of spurious effects on cell growth. […]"}, "[2]": {"system": "MTE 4-14 cells transfected with the empty vector", "assay": "In vitro cell-growth assay, MTE 4-14 cells transfected with the empty vector", "type": "cell-based, murine", "conditions": "siRNA transfection, growth curves, FIG. 7d", "method": "as §1, §2, §3"}, "Trop-2 [3]": {"system": "Trop-2", "assay": "Depletion of cholesterol from cell membranes, release of Trop-2", "type": "cell-based", "conditions": "MTE4-14 cells transfected with Trop-2; 10 mM, 37° C., 45 min; Western blot, FIG. 3f", "method": "To deplete cell membranes of cholesterol, intact cells were washed three times in PBS to remove serum and incubated in DMEM with 10 mM methyl-β-cyclodextrin at 37° C. for 45 min. Control cells were processed in parallel in the absence of methyl-β-cyclodextrin. Samples were centrifuged at 2000 g to remove cells and cell debris. Proteins in the supernatant were precipitated in trichloroacetic acid and analysed by Western blotting."}, "Trop-2 [4]": {"system": "Trop-2", "assay": "Precipitation of cholesterol from BRIJ lysate, precipitation of Trop-2", "conditions": "MTE4-14 cells transfected with Trop-2; Western blot, FIG. 3f", "method": "Cells were also harvested by scraping and lysed in buffer with 1% BRIJ. The supernatant was mixed with either 1/10 (vol/vol) methanol (control) or 1/10 (vol/vol) 10% digitonin in methanol, and incubated on ice for 10 min. Cell membranes were recovered by centrifugation at 12,000 g for 15 min. The pellet was washed in cold acetone, resuspended in Laemmli buffer and analysed by Western blotting."}, "[5]": {"system": "Colo205 colon cancer cells", "assay": "Xenografts in athymic nude mice, Colo205", "conditions": "0.35 mg/mouse intraperitoneally every day, in vivo growth curves", "method": "(§4) MTE 4-14 immortalized cell line transfected with Trop-2 (Alberti, Nutini et al. 1994), or Colo205 colon cancer cells, endogenously expressing Trop-2, were injected subcutaneously (4×10^6 cells/injection) into nude mice groups (8 weeks females, CD1-Foxn1 nu/nu mice (Charles River Laboratories, Calco, Lecco, Italy). MTE 4-14 cells transfected with Trop-2 were co-injected with Matrigel 1:3 vol/vol (growth factor reduced matrix, BD Biosciences, Franklin Lakes, N.J. USA). A stock solution of MK-2206 in DMSO was diluted at the time of use in apyrogenic saline solution, to a final concentration of 0.7 mg/ml, and the drug was administered intraperitoneally at a dose of 0.35 mg/mouse every day, starting from the time in which the tumors became palpable. Control group mice were treated with the vehicle alone. Mice were visually inspected every 5-7 days and the major and minor diameters of the experimental tumors were measured. The tumor volume was calculated using the formula for the volume of ellipsoid (Dxd2/2). MTE 4-14 cells transfected with the empty vector were not tumorigenic in this model. […]"}, "[6]": {"system": "MTE 4-14 cells transfected with Trop-2", "assay": "Xenografts in athymic nude mice, MTE 4-14 transfected with Trop-2", "conditions": "MTE 4-14/Trop-2; 0.35 mg/mouse intraperitoneally every day; in vivo growth curves", "method": "as §4"}, "[7]": {"biological_target": "T1, Trop-2 (human, wild-type) (human, UniProt P09758 27-323)", "T1 construct": "whole, on cells; Full-length protein expressed in cells (MTE 4-14 transfectants, MCF7); also called T2", "T1 sequence (looked up)": "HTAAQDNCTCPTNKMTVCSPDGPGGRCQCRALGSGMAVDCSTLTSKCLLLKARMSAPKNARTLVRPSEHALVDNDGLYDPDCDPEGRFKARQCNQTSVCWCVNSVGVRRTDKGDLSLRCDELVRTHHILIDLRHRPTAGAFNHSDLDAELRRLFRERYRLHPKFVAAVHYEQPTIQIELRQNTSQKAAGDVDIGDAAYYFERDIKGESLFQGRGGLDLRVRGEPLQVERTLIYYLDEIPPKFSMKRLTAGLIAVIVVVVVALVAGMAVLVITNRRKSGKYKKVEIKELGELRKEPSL", "assay": "confocal microscopy of intact cells, co-capping and cell footprints, MTE 4-14 cells transfected with Trop-2", "text": "FIG. 3. Interaction of Trop-2 and PKCα with tetraspanin molecules and CD9. (a-d) Confocal microscopy analysis of intact cell membranes (a), membrane areas showing co-capping (b), footprints of cell membranes (c, d) of MTE 4-14 cells transfected with Trop-2 (a-c, d top) or with the empty vector (d bottom) stained simultaneously with anti-Trop-2 and anti-CD9 (member of tetraspanin webs) or anti-caveolin (negative control) (a-c) or anti-CD9 and anti PKCα (d) conjugated with fluorescent molecules. Areas of colocalization are indicated by arrowheads. (e) Co-immunoprecipitation (IP) of Trop-2, PKCα, CD9 and tetraspanins. Immunoprecipitation was performed using primary antibodies against murine CD9, CD81 and CD151 (MTE 4-14cells) or human CD9, CD82 and CD151 (MCF7 cells); the presence of Trop-2 and PKCα in immunoprecipites was detected by Western blot. IP with anti-Trop-2: positive control. (f) Trop-2/cholesterol association. Release of Trop-2 in the culture medium after treatment with methyl-β-cyclodextrin (MβCD) (left). Precipitation of Trop-2 with digitonin from BRIJ lysate (right). The treatments were performed on MTE4-14 cells transfected with Trop-2, and the presence of Trop-2 in the soluble and insoluble fractions was assessed by Western blot."}}}
{"molecule": "CCCCCCCCCCCCCC(=O)O[C@@H]1[C@@H](C)[C@@]2(O)[C@@H](C=C(CO)C[C@]3(O)C(=O)C(C)=C[C@@H]23)[C@@H]2C(C)(C)[C@]12OC(C)=O", "note": "[PMA]", "values": [{"measurement": "Akt-S473 phosphorylation", "setting": "Akt; MTE 4-14 cells transfected with Trop-2, FIG. 6b", "result": "reduction, further increased by PMA"}, {"measurement": "Akt-T308 phosphorylation levels", "setting": "Akt; MTE 4-14 transfectants, FIG. 6b", "result": "no effect"}]}
{"molecule": "anti-CD9 siRNA: anti-CD9 siRNA with target sense sequence 5′ GGTAGCAAGT GCATCAAAT 3′, expressed as hairpin RNA from pSUPER vector (sense GGTAGCAAGTGCATCAAAT; antisense ATTTGATGCACTTGCTACC; listed as Mus musculus)", "values": [{"measurement": "proliferation of MTE 4-14 cells expressing Trop-2", "setting": "[1]", "result": "striking reduction"}, {"measurement": "proliferation of Trop-2-negative cells", "setting": "[2]", "result": "essentially no impact"}]}
{"molecule": "methyl-β-cyclodextrin", "values": [{"measurement": "release of Trop-2 in the culture medium", "setting": "Trop-2 [3]", "result": "induce the release of Trop-2 in the culture medium"}]}
{"molecule": "C[C@@H]1CC[C@@]2(OC1)O[C@H]1[C@@H](O)[C@H]3[C@@H]4CC[C@H]5C[C@@H](O[C@@H]6O[C@H](CO)[C@H](O[C@@H]7O[C@H](CO)[C@@H](O)[C@H](O[C@@H]8OC[C@@H](O)[C@H](O)[C@H]8O)[C@H]7O[C@@H]7O[C@H](CO)[C@H](O)[C@H](O[C@@H]8O[C@H](CO)[C@@H](O)[C@H](O)[C@H]8O)[C@H]7O)[C@H](O)[C@H]6O)[C@H](O)C[C@]5(C)[C@H]4CC[C@]3(C)[C@H]1[C@@H]2C", "note": "[digitonin]", "values": [{"measurement": "precipitation of Trop-2 from lysates of cell membranes in BRIJ", "setting": "Trop-2 [4]", "result": "precipitation of Trop-2"}]}
{"molecule": "NC1(c2ccc(-c3nc4ccn5c(=O)[nH]nc5c4cc3-c3ccccc3)cc2)CCC1", "note": "[MK-2206]", "values": [{"measurement": "Difference between control and treated tumors, P (two-way ANOVA)", "setting": "[5]", "result": "< 0.0001"}, {"measurement": "Difference between control and treated tumors, P (two-way ANOVA)", "setting": "[6]", "result": "< 0.0001"}]}
{"molecule": "B1", "values": [{"measurement": "binding result", "setting": "[7]", "result": "no binding"}]}
